{"source": "patent US6436874B1", "about": "“Synergistic herbicidal agents based on leaf herbicides containing phosphorus, imidazolinones and hormone weed killers” (priority 1998, dated 2002)", "format_in_all_cases": "in vivo", "key": {"Hedyotis verticillata": {"system": "Hedyotis verticillata", "test": "Field trial, herbicidal activity against Hedyotis verticillata in oil palm plantation", "settings": "for inhibition at 50 g/ha: Scleromitrion verticillatum, No. 14, dose 50 g of AS/ha, read-out: Herbicidal activity (%), w. after appl.", "procedure": "(§1) In an oil palm plantation, the economically important tropical weed Hedyotis verticillata was grown on plots of the dimensions 2×5 m under natural outdoor conditions and treated with the herbicides A1.2, B1 and C1 or their mixtures in a tank mix under standard conditions using a plot sprayer, at a water application rate of 450 liters of water per hectare (over-the-top application to the weeds; plant density initially more than 95% ground coverage). At intervals of 1, 2, 3, 4, 5, 6, 7 and 8 weeks after the application, the herbicidal efficacy of the active compounds or active compound mixtures was evaluated visually on the basis of the treated plots, in comparison with untreated control plots. The damage to and development of all above-ground parts of the plants were recorded. Evaluation was carried out using a percentage scale (100% effect=all plants killed; 50% effect=50% of the plants and the green parts of the plants killed; 0% effect=no noticeable effect=like control plot). The evaluation values of in each case 4 plots were averaged."}, "Asystasia intrusa": {"system": "Asystasia intrusa", "test": "Field trial, herbicidal activity against Asystasia intrusa in rubber tree plantation", "settings": "for inhibition at 50 g/ha: Asystasia intrusa, No. 3, dose 50 g of AS/ha; for Activity (%), w. after appl.: No. 16, dose 40 g of AS/ha", "procedure": "as §1\nIn a rubber tree plantation, plots with the tropical weed Asystasia intrusa were grown under natural outdoor conditions (dimensions of the plots 2 x 5 m). The herbicides or their mixtures in a tank mix were applied under standard conditions (over-the-top application using a plot sprayer, water application rate 450 l/ha). In intervals of 4, 7, 13, 17 and 21 weeks after the application, the herbicidal efficacy of the active compounds or their mixtures was evaluated visually on the basis of the treated plots, in comparison with untreated control plots. The damage to and the development of all above-ground parts of the plants were recorded. Evaluation was carried out as described in Example 1."}, "Axonopus compressus": {"system": "Axonopus compressus", "test": "Field trial, herbicidal activity against Axonopus compressus in rubber tree plantation", "settings": "for inhibition at 50 g/ha: Axonopus compressus, No. 3, dose 50 g of AS/ha; for Activity (%), w. after appl.: No. 16, dose 40 g of AS/ha", "procedure": "as §1\nIn a rubber tree plantation, plots with the tropical weed Axonopus compressus were grown under natural outdoor conditions (plot dimensions 2×5 m). The herbicides or their mixtures in a tank mix were applied under standard conditions using a plot spayer at a water application rate of 450 liters of water per hectare (over-the-top application). At intervals of 4, 7, 13, 17 and 21 weeks after the application, the herbicidal efficacy of the active compounds or active compound mixtures was evaluated visually on the basis of the treated plots, in comparison with untreated control plots. The damage to and development of all above-ground parts of the plants were recorded. Evaluation was carried out as described in Example 1."}}, "note": "Like-named read-outs stand apart in the source and are kept apart here.", "data": [{"smiles": "CC(C)C1(C)N=C(c2ncccc2C(=O)O)NC1=O", "note": "(centres unmarked) [B1, Imazapyr]", "values": [{"measurement": "inhibition at 50 g/ha", "setting": "Hedyotis verticillata; 1 w. after appl.", "value": 8, "unit": "%"}, {"measurement": "inhibition at 50 g/ha", "setting": "Hedyotis verticillata; 2 w. after appl.", "value": 5, "unit": "%"}, {"measurement": "inhibition at 50 g/ha", "setting": "Hedyotis verticillata; 3 w. after appl.", "value": 5, "unit": "%"}, {"measurement": "inhibition at 50 g/ha", "setting": "Hedyotis verticillata; 4 w. after appl.", "value": 5, "unit": "%"}, {"measurement": "inhibition at 50 g/ha", "setting": "Hedyotis verticillata; 5 w. after appl.", "value": 10, "unit": "%"}, {"measurement": "inhibition at 50 g/ha", "setting": "Hedyotis verticillata; 6 w. after appl.", "value": 13, "unit": "%"}, {"measurement": "inhibition at 50 g/ha", "setting": "Hedyotis verticillata; 7 w. after appl.", "value": 15, "unit": "%"}, {"measurement": "inhibition at 50 g/ha", "setting": "Hedyotis verticillata; 8 w. after appl.", "value": 15, "unit": "%"}, {"measurement": "inhibition at 50 g/ha", "setting": "Asystasia intrusa; 4 w. after appl.", "value": 45, "unit": "%"}, {"measurement": "inhibition at 50 g/ha", "setting": "Asystasia intrusa; 7 w. after appl.", "value": 40, "unit": "%"}, {"measurement": "inhibition at 50 g/ha", "setting": "Asystasia intrusa; 13 w. after appl.", "value": 40, "unit": "%"}, {"measurement": "inhibition at 50 g/ha", "setting": "Asystasia intrusa; 17 w. after appl.", "value": 47, "unit": "%"}, {"measurement": "inhibition at 50 g/ha", "setting": "Asystasia intrusa; 21 w. after appl.", "value": 53, "unit": "%"}, {"measurement": "inhibition at 50 g/ha", "setting": "Axonopus compressus; 4 w. after appl.", "value": 35, "unit": "%"}, {"measurement": "inhibition at 50 g/ha", "setting": "Axonopus compressus; 7 w. after appl.", "value": 35, "unit": "%"}, {"measurement": "inhibition at 50 g/ha", "setting": "Axonopus compressus; 13 w. after appl.", "value": 45, "unit": "%"}, {"measurement": "inhibition at 50 g/ha", "setting": "Axonopus compressus; 17 w. after appl.", "value": 45, "unit": "%"}, {"measurement": "inhibition at 50 g/ha", "setting": "Axonopus compressus; 21 w. after appl.", "value": 50, "unit": "%"}]}, {"smiles": "O=C([O-])COc1ccc(Cl)cc1Cl.[Na+]", "note": "[C1, 2,4-D-sodium salt]", "values": [{"measurement": "Herbicidal activity (%), w. after appl.", "setting": "Hedyotis verticillata; No. 15, dose 40 g of AS/ha, 1 w. after appl.", "value": 6, "unit": "%"}, {"measurement": "Herbicidal activity (%), w. after appl.", "setting": "Hedyotis verticillata; No. 15, dose 40 g of AS/ha, 2 w. after appl.", "value": 5, "unit": "%"}, {"measurement": "Herbicidal activity (%), w. after appl.", "setting": "Hedyotis verticillata; No. 15, dose 40 g of AS/ha, 3 w. after appl.", "value": 5, "unit": "%"}, {"measurement": "Herbicidal activity (%), w. after appl.", "setting": "Hedyotis verticillata; No. 15, dose 40 g of AS/ha, 4 w. after appl.", "value": 4, "unit": "%"}, {"measurement": "Herbicidal activity (%), w. after appl.", "setting": "Hedyotis verticillata; No. 15, dose 40 g of AS/ha, 5 w. after appl.", "value": 0, "unit": "%"}, {"measurement": "Herbicidal activity (%), w. after appl.", "setting": "Hedyotis verticillata; No. 15, dose 40 g of AS/ha, 6 w. after appl.", "value": 0, "unit": "%"}, {"measurement": "Herbicidal activity (%), w. after appl.", "setting": "Hedyotis verticillata; No. 15, dose 40 g of AS/ha, 7 w. after appl.", "value": 0, "unit": "%"}, {"measurement": "Herbicidal activity (%), w. after appl.", "setting": "Hedyotis verticillata; No. 15, dose 40 g of AS/ha, 8 w. after appl.", "value": 0, "unit": "%"}, {"measurement": "Herbicidal activity (%), w. after appl.", "setting": "Hedyotis verticillata; No. 16, dose 20 g of AS/ha, 1 w. after appl.", "value": 6, "unit": "%"}, {"measurement": "Herbicidal activity (%), w. after appl.", "setting": "Hedyotis verticillata; No. 16, dose 20 g of AS/ha, 2 w. after appl.", "value": 5, "unit": "%"}, {"measurement": "Herbicidal activity (%), w. after appl.", "setting": "Hedyotis verticillata; No. 16, dose 20 g of AS/ha, 3 w. after appl.", "value": 5, "unit": "%"}, {"measurement": "Herbicidal activity (%), w. after appl.", "setting": "Hedyotis verticillata; No. 16, dose 20 g of AS/ha, 4 w. after appl.", "value": 1, "unit": "%"}, {"measurement": "Herbicidal activity (%), w. after appl.", "setting": "Hedyotis verticillata; No. 16, dose 20 g of AS/ha, 5 w. after appl.", "value": 0, "unit": "%"}, {"measurement": "Herbicidal activity (%), w. after appl.", "setting": "Hedyotis verticillata; No. 16, dose 20 g of AS/ha, 6 w. after appl.", "value": 0, "unit": "%"}, {"measurement": "Herbicidal activity (%), w. after appl.", "setting": "Hedyotis verticillata; No. 16, dose 20 g of AS/ha, 7 w. after appl.", "value": 0, "unit": "%"}, {"measurement": "Herbicidal activity (%), w. after appl.", "setting": "Hedyotis verticillata; No. 16, dose 20 g of AS/ha, 8 w. after appl.", "value": 0, "unit": "%"}, {"measurement": "Activity (%), w. after appl.", "setting": "Asystasia intrusa; 4 w. after appl.", "value": 77, "unit": "%"}, {"measurement": "Activity (%), w. after appl.", "setting": "Asystasia intrusa; 7 w. after appl.", "value": 67, "unit": "%"}, {"measurement": "Activity (%), w. after appl.", "setting": "Asystasia intrusa; 13 w. after appl.", "value": 20, "unit": "%"}, {"measurement": "Activity (%), w. after appl.", "setting": "Asystasia intrusa; 17 w. after appl.", "value": 10, "unit": "%"}, {"measurement": "Activity (%), w. after appl.", "setting": "Asystasia intrusa; 21 w. after appl.", "value": 8, "unit": "%"}, {"measurement": "Activity (%), w. after appl.", "setting": "Axonopus compressus; 4 w. after appl.", "value": 5, "unit": "%"}, {"measurement": "Activity (%), w. after appl.", "setting": "Axonopus compressus; 7 w. after appl.", "value": 5, "unit": "%"}, {"measurement": "Activity (%), w. after appl.", "setting": "Axonopus compressus; 13 w. after appl.", "value": 0, "unit": "%"}, {"measurement": "Activity (%), w. after appl.", "setting": "Axonopus compressus; 17 w. after appl.", "value": 0, "unit": "%"}, {"measurement": "Activity (%), w. after appl.", "setting": "Axonopus compressus; 21 w. after appl.", "value": 0, "unit": "%"}]}]}
